From US20250154138A1, “Small Molecule IL-17A Modulators” (BeiGene, Ltd., priority 2022, published 2025) come the findings set out here.

For the experiment, the target named is human IL-17A / human IL-17RA (Homo sapiens (Human), UniProt Q16552). The experiment is described as follows: Human IL-17A biochemical assay (HTRF, blocking of IL-17A binding to IL-17RA). Particulars: 0.4 nM IL-17A, 0.3 nM IL-17RA, max compound concentration 10 uM. The method, then: Compounds disclosed herein were tested for blocking of human IL-17A (Cat: C774, novoprotein) protein with its receptor human IL-17RA (Cat: C153, novoprotein) in an assay based on Homogeneous Time Resolved Fluorescence. 0.4 nM recombinant human IL-17A protein was pre-incubated with a serial dilution of compounds disclosed herein (maximum concentration is 10 uM, 2.7-fold serially diluted, 10 points) at room temperature for 3 hours in an assay buffer containing 20 mM HEPES, pH 7.5, 50 mM NaCl, 0.1% BSA, 0.2 mM DTT, 0.005% Tween 20. Then 0.3 nM recombinant human IL-17RA was added to plate and further incubated at room temperature for 1 hour. After that Mab Anti-6His Tb cryptate Gold (Cat: 61HI2TLB, Cisbio Bioassays) and MAb Anti Human IgG-XL665 (Cat: 61HFCXLB, Cisbio Bioassays) were added to plate and further incubated at room temperature for 1 hour. The HTRF signals (ex337 nm, em620 nm/665 nm) were read on BMG PHERAstar FSX instrument. The inhibition percentage of human IL-17A interaction with its receptor human IL-17RA in presence of increasing concentrations of compounds was calculated based on the ratio of […]. The IC50 for each compound was derived from fitting the data to the four-parameter logistic equation by Dotmatics.
Sequence of human IL-17A / human IL-17RA (Q16552 24-155): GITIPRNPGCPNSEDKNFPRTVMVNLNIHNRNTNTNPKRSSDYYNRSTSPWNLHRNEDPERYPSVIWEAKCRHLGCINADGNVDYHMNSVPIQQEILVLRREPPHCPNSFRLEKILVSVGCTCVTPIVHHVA

Some results are limits rather than exact numbers.

Molecule `CNC(=O)C1(N2CC3(CC3)CNC2=O)Cc2ccc(NC(=O)[C@@H](NC(=O)c3ccn(C4CC(O)C4)n3)C3CCCCC3)cc2C1` (stereo partly drawn) [Example 133, N-((1S)-1-cyclohexyl-2-((2-(methylcarbamoyl)-2-(6-oxo-5,7-diazaspiro[2.5]octan-5-yl)-2,3-dihydro-1H-inden-5-yl)amino)-2-oxoethyl)-1-(3-hydroxycyclobutyl)-1H-pyrazole-3-carboxamide] gave a half-maximal inhibitory concentration (IC50) of 0.32 µM.
`CNC(=O)C1(N2CC(c3ccccc3)NC2=O)Cc2ccc(NC(=O)[C@@H](NC(=O)c3ccnn3C)C3CCCCC3)cc2C1` (stereo partly drawn) [Example 36, N-((1S)-1-cyclohexyl-2-((2-(methylcarbamoyl)-2-(2-oxo-4-phenylimidazolidin-1-yl)-2,3-dihydro-1H-inden-5-yl)amino)-2-oxoethyl)-1-methyl-1H-pyrazole-5-carboxamide] gave an IC50 of 2.43 µM.
In turn, `CNC(=O)C1(N2C[C@@H](C(C)C)NC2=O)Cc2ccc(NC(=O)[C@@H](NC(=O)c3ccnn3C)c3ccccc3)cc2C1` (stereo partly drawn) [Example 60, N-((1S)-2-((2-((R)-4-isopropyl-2-oxoimidazolidin-1-yl)-2-(methylcarbamoyl)-2,3-dihydro-1H-inden-5-yl)amino)-2-oxo-1-phenylethyl)-1-methyl-1H-pyrazole-5-carboxamide] came in with an IC50 of 2.01 µM.
`Cc1nonc1C(=O)N[C@H](C(=O)Nc1ccc2c(c1)CC(C(=O)Nc1ccc(Cl)cc1Cl)(N1C[C@@H](C(C)C)NC1=O)C2)C(C1CC1)C1CC1` (stereo partly drawn) [Example 264, N-((2S)-1,1-dicyclopropyl-3-((2-((2,4-dichlorophenyl)carbamoyl)-2-((R)-4-isopropyl-2-oxoimidazolidin-1-yl)-2,3-dihydro-1H-inden-5-yl)amino)-3-oxopropan-2-yl)-4-methyl-1,2,5-oxadiazole-3-carboxamide] gave a 50% inhibitory concentration (IC50) of 2.54 µM.
Consider `CNC(=O)C1(N2C[C@@H](C3CCCCC3)NC2=O)Cc2ccc(NC(=O)[C@@H](NC(=O)c3ccnn3C)C3CCCCC3)cc2C1` (stereo partly drawn) [Example 25, N-((1S)-1-cyclohexyl-2-((2-((R)-4-cyclohexyl-2-oxoimidazolidin-1-yl)-2-(methylcarbamoyl)-2,3-dihydro-1H-inden-5-yl)amino)-2-oxoethyl)-1-methyl-1H-pyrazole-5-carboxamide], for which the IC50 is 6.3 µM.
For `CNC(=O)C1(N2CC(Cc3ccc(C#N)cc3)NC2=O)Cc2ccc(NC(=O)[C@@H](NC(=O)c3ccnn3C)C3CCCCC3)cc2C1` (stereo partly drawn) [Example 140, N-((1S)-2-((2-(4-(4-cyanobenzyl)-2-oxoimidazolidin-1-yl)-2-(methylcarbamoyl)-2,3-dihydro-1H-inden-5-yl)amino)-1-cyclohexyl-2-oxoethyl)-1-methyl-1H-pyrazole-5-carboxamide], the half-inhibitory concentration (IC50) was 0.277 µM.
The molecule `CNC(=O)C1(N2CC(C)NC2=O)CCc2ccc(NC(=O)[C@@H](NC(=O)c3ccnn3C)C3CCCCC3)cc2CC1` (stereo partly drawn) [Example 7, N-((1S)-1-cyclohexyl-2-((7-(4-methyl-2-oxoimidazolidin-1-yl)-7-(methylcarbamoyl)-6,7,8,9-tetrahydro-5H-benzo[7]annulen-2-yl)amino)-2-oxoethyl)-1-methyl-1H-pyrazole-5-carboxamide] had a half-maximal inhibitory concentration (IC50) of 51 µM.
`CNC(=O)C1(N2CCC(C)NC2=O)Cc2ccc(NC(=O)[C@@H](NC(=O)c3ccnn3C)C3CCCCC3)cc2C1` (stereo partly drawn) [Example 95, N-((1S)-1-cyclohexyl-2-((2-(4-methyl-2-oxotetrahydropyrimidin-1(2H)-yl)-2-(methylcarbamoyl)-2,3-dihydro-1H-inden-5-yl)amino)-2-oxoethyl)-1-methyl-1H-pyrazole-5-carboxamide] came in with a 50% inhibitory concentration (IC50) of 4.23 µM.
Molecule `CNC(=O)C1(N2CCCNC2=O)Cc2ccc(NC(=O)[C@@H](NC(=O)c3ccnn3C)C3CCCCC3)cc2C1` (stereo partly drawn) [Example 134, N-((1S)-1-cyclohexyl-2-((2-(methylcarbamoyl)-2-(2-oxotetrahydropyrimidin-1(2H)-yl)-2,3-dihydro-1H-inden-5-yl)amino)-2-oxoethyl)-1-methyl-1H-pyrazole-5-carboxamide] came in with a half-maximal inhibitory concentration (IC50) of 0.311 µM.
The molecule `CNC(=O)C1(N2C[C@@H](C(C)C)NC2=O)Cc2ccc(NC(=O)C(Cc3cc(Cl)ccc3Cl)NC(=O)c3ccnn3C)cc2C1` (stereo partly drawn) [Example 127, N-(3-(2,5-dichlorophenyl)-1-((2-((R)-4-isopropyl-2-oxoimidazolidin-1-yl)-2-(methylcarbamoyl)-2,3-dihydro-1H-inden-5-yl)amino)-1-oxopropan-2-yl)-1-methyl-1H-pyrazole-5-carboxamide] registered an IC50 of 0.698 µM. This IC50 is about 2.2-fold higher than that of the molecule before.
With `CC[C@H]1CN(C2(C(=O)NC)Cc3cc4nc([C@@H](NC(=O)c5nonc5C)C5CCCCC5)[nH]c4cc3C2)C(=O)N1` [Example 33, N-((1S)-cyclohexyl(6-((S)-4-ethyl-2-oxoimidazolidin-1-yl)-6-(methylcarbamoyl)-1,5,6,7-tetrahydroindeno[5,6-d]imidazol-2-yl)methyl)-4-methyl-1,2,5-oxadiazole-3-carboxamide], the concentration for half-maximal inhibition (IC50) was 2.04 µM.
On to `CNC(=O)C1(N2CC(C(C)(C)O)NC2=O)Cc2ccc(NC(=O)[C@@H](NC(=O)c3ccnn3C)C3CCCCC3)cc2C1` (stereo partly drawn) [Example 42, N-((1S)-1-cyclohexyl-2-((2-(4-(2-hydroxypropan-2-yl)-2-oxoimidazolidin-1-yl)-2-(methylcarbamoyl)-2,3-dihydro-1H-inden-5-yl)amino)-2-oxoethyl)-1-methyl-1H-pyrazole-5-carboxamide], for which the half-inhibitory concentration (IC50) was determined as 3.17 µM. Compared with the last molecule, the IC50 is about 1.6-fold higher.
In turn, `CNC(=O)C1(N2CC(C)NC2=O)CCc2ccc(NC(=O)[C@@H](NC(=O)c3ccnn3C)C3CCCCC3)cc2C1` (stereo partly drawn) [Example 10, N-((1S)-1-cyclohexyl-2-((7-(4-methyl-2-oxoimidazolidin-1-yl)-7-(methylcarbamoyl)-5,6,7,8-tetrahydronaphthalen-2-yl)amino)-2-oxoethyl)-1-methyl-1H-pyrazole-5-carboxamide] gave an IC50 of 19 µM.
`Cc1nonc1C(=O)N[C@H](C(=O)Nc1ccc2c(c1)CC(C(=O)Nc1cc(Cl)cc(Cl)c1)(N1C[C@@H](C(C)C)NC1=O)C2)C(C1CC1)C1CC1` (stereo partly drawn) [Example 265, N-((2S)-1,1-dicyclopropyl-3-((2-((3,5-dichlorophenyl)carbamoyl)-2-((R)-4-isopropyl-2-oxoimidazolidin-1-yl)-2,3-dihydro-1H-inden-5-yl)amino)-3-oxopropan-2-yl)-4-methyl-1,2,5-oxadiazole-3-carboxamide] gave an IC50 of 8.07 µM.
With `CNC(=O)C1(N2CC(C)NC2=O)COc2ccc(NC(=O)[C@@H](NC(=O)c3ccnn3C)C3CCCCC3)cc2OC1` (stereo partly drawn) [Example 6, N-((1S)-1-cyclohexyl-2-((3-(4-methyl-2-oxoimidazolidin-1-yl)-3-(methylcarbamoyl)-3,4-dihydro-2H-benzo[b][1,4]dioxepin-7-yl)amino)-2-oxoethyl)-1-methyl-1H-pyrazole-5-carboxamide], the half-maximal inhibitory concentration (IC50) amounted to 17 µM.
In turn, `CNC(=O)C1(N2C[C@@H](C(C)C)NC2=O)Cc2ccc(NC(=O)[C@@H](NC(=O)c3ccnn3C)C3CCOCC3)cc2C1` (stereo partly drawn) [Example 85, N-((1S)-2-((2-((R)-4-isopropyl-2-oxoimidazolidin-1-yl)-2-(methylcarbamoyl)-2,3-dihydro-1H-inden-5-yl)amino)-2-oxo-1-(tetrahydro-2H-pyran-4-yl)ethyl)-1-methyl-1H-pyrazole-5-carboxamide] had a 50% inhibitory concentration (IC50) of 10.1 µM.
In the case of `CNC(=O)C1Cc2ccc(NC(=O)[C@@H](NC(=O)c3ccnn3C)C3CCCCC3)cc2C1` (stereo partly drawn) [Example 4, N-((1S)-1-cyclohexyl-2-((2-(methylcarbamoyl)-2,3-dihydro-1H-inden-5-yl)amino)-2-oxoethyl)-1-methyl-1H-pyrazole-5-carboxamide], the IC50 was more than 10 µM.
Then `CNC(=O)C1(N2CC(CC(F)(F)F)NC2=O)Cc2ccc(NC(=O)[C@@H](NC(=O)c3ccnn3C)C3CCCCC3)cc2C1` (stereo partly drawn) [Example 73, N-((1S)-1-cyclohexyl-2-((2-(methylcarbamoyl)-2-(2-oxo-4-(2,2,2-trifluoroethyl)imidazolidin-1-yl)-2,3-dihydro-1H-inden-5-yl)amino)-2-oxoethyl)-1-methyl-1H-pyrazole-5-carboxamide], with 0.391 µM.
Consider `Cc1nonc1C(=O)N[C@H](C(=O)Nc1ccc2c(c1)CC(CN1C[C@@H](C(F)(F)F)NC1=O)O2)C(C1CC1)C1CC1` (stereo partly drawn) [Example 293, N-((2S)-1,1-dicyclopropyl-3-oxo-3-((2-(((S)-2-oxo-4-(trifluoromethyl)imidazolidin-1-yl)methyl)-2,3-dihydrobenzofuran-5-yl)amino)propan-2-yl)-4-methyl-1,2,5-oxadiazole-3-carboxamide], for which the 50% inhibitory concentration (IC50) was more than 10 µM.
The molecule `CNC(=O)C1(N2CC(C)(Cc3ccccc3)CNC2=O)Cc2ccc(NC(=O)[C@@H](NC(=O)c3ccnn3C)C3CCCCC3)cc2C1` (stereo partly drawn) [Example 109, N-((1S)-2-((2-(5-benzyl-5-methyl-2-oxotetrahydropyrimidin-1(2H)-yl)-2-(methylcarbamoyl)-2,3-dihydro-1H-inden-5-yl)amino)-1-cyclohexyl-2-oxoethyl)-1-methyl-1H-pyrazole-5-carboxamide] registered a 50% inhibitory concentration (IC50) of 3.45 µM.
As to `CNC(=O)C1(N2CC(C3CCOC3)NC2=O)Cc2ccc(NC(=O)[C@@H](NC(=O)c3ccnn3C)C3CCCCC3)cc2C1` (stereo partly drawn) [Example 34, N-((1S)-1-cyclohexyl-2-((2-(methylcarbamoyl)-2-(2-oxo-4-(tetrahydrofuran-3-yl)imidazolidin-1-yl)-2,3-dihydro-1H-inden-5-yl)amino)-2-oxoethyl)-1-methyl-1H-pyrazole-5-carboxamide], the concentration for half-maximal inhibition (IC50) is 8.4 µM. This IC50 is about 2.4-fold higher than that of the molecule before.
